Results taken from BigSolDB 2.1.

COc1ccc(Cl)cc1C(=O)NCCc1ccc(S(=O)(=O)NC(=O)NC2CCCCC2)cc1
solubility (mole fraction)
Conditions	283.15 K	288.15 K	293.15 K	298.15 K	303.15 K	308.15 K	313.15 K	318.15 K	323.15 K
in acetone	0.000443	0.000559	0.000701	0.00088	0.00112	0.0014	0.00175	0.00219	0.00269
in ethanol	0.000103	0.000145	0.000196	0.000259	0.000333	0.000437	0.00062	0.000893	0.00122
in ethyl acetate	8.63e-05	0.000115	0.000146	0.000186	0.000236	0.000307	0.000394	0.000511	0.000647
in isopropanol	7.96e-05	9.98e-05	0.00013	0.000176	0.000216	0.000286	0.000422	0.000607	0.000892
in methanol	0.000129	0.000172	0.00022	0.0003	0.000378	0.000477	0.00066	0.00103	0.00137
in water	8.38e-08	8.83e-08	1.05e-07	1.28e-07	1.64e-07	2.3e-07	3.24e-07	4.54e-07	7.84e-07
